In patent US11951131B2, “Anti-SLAMF7 chimeric antigen receptors” (The United States of America, as represented by the …, priority 2018, dated 2024):
“Also recorded” adds a separate entry of the source.

Legend:
T cells only = assay: IFN-gamma ELISA, T cells only (no target cells); format: cell-based, human
Description: (§1) One-hundred thousand SLAMF7^+ or SLAMF7-negative target cells were combined with 100,000 CAR-transduced T cells in duplicate wells of a 96 well round bottom plate in 200 µL of AIM V™ medium (Invitrogen) plus 5% human serum. The plates were incubated at 37° C. for 18-20 hours. Following the incubation, ELISAs (enzyme-linked immunosorbent assays) for IFNγ were performed by using standard methods.
The T cells columns indicate whether T cells were transduced with Luc90-CD828Z, Luc63-CD828Z, or were untransduced. The % CAR^+ in Table B-1 was determined by staining the T cells with Protein L. Except for the % CAR^+ column, all values are pg/mL of IFN-gamma. T cells that were either untransduced or transduced with one of the indicated CARs were cultured with target cells overnight and a standard IFN-gamma ELISA was performed on the culture supernatant.
(§2) All values are pg/mL of IFN-gamma. T cells that were either untransduced or transduced with one of the indicated CARs were cultured with target cells overnight, and a standard IFN-gamma ELISA was performed on the culture supernatant.
The values in the cells are pg/mL of IFN-gamma. T cells that were either untransduced or transduced with one of the indicated CARs were cultured with target cells overnight, and a standard IFN-gamma ELISA was performed on the culture supernatant. The concentrations of 0, 50, or 200 ng/mL at the top of each column indicates the concentration of soluble SLAMF7 added to all T cell plus target cell overnight cultures in that column. The soluble SLAMF7 was added at the beginning of the overnight culture.

SLAMF7-K562 target cells = assay: CFSE proliferation assay; format: cell-based, human; conditions: SLAMF7-K562 versus NGFR-K562 target cells, 4 days (FIGS. 8B, 8C)
Description: Cocultures were set up in 24-well plates. Target cells included in cocultures were either 0.5×10^6 irradiated SLAMF7-K562 cells or 0.5×10^6 irradiated NGFR-K562 cells. The cocultures also included 1×10^6 T cells from cultures that had been transduced with either […]. The T cells were labeled with carboxy fluorescein diacetate succinimidyl ester (CFSE, Invitrogen) as previously described. The medium used in the cocultures was AIM V™ (Invitrogen) plus 5% human AB serum. IL-2 was not added to the medium. Four days after initiation, the live cells in each coculture were counted with trypan blue for dead cell exclusion, and flow cytometry was performed by Protein L staining.

[1] = system: MM.1S human SLAMF7^+ multiple myeloma solid tumors; assay: MM.1S solid tumor model in NSG mice, anti-tumor efficacy; format: in vivo; conditions: for anti-tumor activity: 2 million CAR^+ T cells per mouse, 5 mice per group (FIG. 17)
Description: (§3) First, MM.1S human SLAMF7^+ multiple myeloma cell line tumors were established in immunodeficient mice. In this model, the MM.1S cells formed a solid cutaneous mass. Measurable tumors were allowed to develop over 7 days, and then the mice were treated with a single intravenous infusion of MSGV1-IC9-Luc90-CD828Z-transduced human T cells. NSG mice (NOD.Cg-Prkdc^scid Il2rg^tm1Wjl/SzJ) from The Jackson Laboratory, Bar Harbor, Me., were used. Mice received intradermal injections of 4×10^6 MM.1S cells. The cells were suspended in a 1:1 mixture of MATRIGEL™ gelatinous protein mixture (BD Biosciences) and PBS (Phosphate-buffered saline) for injection. Tumors were allowed to grow for 7 days, and then each mouse received a single intravenous infusion of human T cells that were transduced with one of 3 CARs: IC9-Luc90-CD828Z (suicide gene+anti-SLAMF7 CAR), Luc90-CD828Z (anti-SLAMF7 CAR alone), or a negative-control anti-CD19 CAR Hu19-CD828Z. A 4th group was left untreated. All groups included 5 mice. After CAR T-cell infusion, the tumors were measured with calipers every 3 days. The longest length and the length perpendicular to the longest length and the tumor thickness were multiplied together to obtain the tumor volume in mm^3. When the longest length reached 15 mm, mice were sacrificed. Animal studies were approved by the National Cancer Institute Animal Care and Use Committee.
FIGS. 16A-16B show a dose-titration of IC9-Luc90-CD828Z-expressing T cells. In this experiment, immunocompromised NSG mice were injected intradermally with 4×10^6 MM.1S cells to form a solid mass. Mice were then treated with a single infusion of 0.5×10^6, 2×10^6, or 8×10^6, IC9-Luc90-CD828Z-expressing T cells. […] The tumor volume curves end when the first mouse of a group was sacrificed.
MM.'S tumors were established in NSG mice as described in Example 9. FIGS. 17A-17B show results in which mice bearing MM.1S tumors were treated with T cells expressing one of 3 different CARs: IC9-Luc90-CD828Z (suicide gene+anti-SLAMF7 CAR), Luc90-CD828Z (anti-SLAMF7 CAR alone), or a negative-control anti-CD19 CAR Hu19-CD828Z. A 4th group was left untreated in both experiments. All groups included 5 mice. The CARP T cell dose was 2 million CARP T cells per mouse. There were 5 mice in all groups.

CCRF-CEM = assay: IFN-gamma ELISA, CAR T cells with CCRF-CEM target cells; format: cell-based, human
Description: (§4) MM.1S is a SLAMF7^+ multiple myeloma cell line that was obtained from American Type Culture Collection (ATCC). A549 is a BCMA-negative lung cancer cell line (ATCC). TC71 is a BCMA-negative sarcoma cell line. CCRF-CEM, 293T, and A549 are SLAMF7-negative cell lines (ATCC). COL0207, HepG2, U251, Panc10.05, and TC71 are […] that were kind gifts from Dr. Steven Rosenberg, National Cancer Institute. SLAMF7-K562 are K562 cells (ATCC) which were transduced with the gene for full-length SLAMF7. SLAMF7-RPMI are RPMI8226 cells (ATCC) which were transduced with the gene for full-length SLAMF7. NGFR-K562 are K562 cells which were transduced with the gene for low-affinity nerve growth factor (Kochenderfer et al., J. Immunother., 32(7): 689-702 (2009)). All of the human samples mentioned were obtained from patients enrolled in IRB-approved clinical trials at the National Cancer Institute.
as §1, §2

MM.1S = assay: IFN-gamma ELISA, CAR T cells with MM.1S target cells; format: cell-based, human
Description: as §4, §1, §2

[2] = Signs of CAR T-cell-mediated toxicity in mice; format: in vivo; conditions: mice after CAR T-cell infusion
Description: as §3, with “Committee. […]” for “Committee.”

TC71 = assay: IFN-gamma ELISA, CAR T cells with TC71 target cells; format: cell-based, human; conditions: Table B-2
Description: as §4
(§5) One-hundred thousand SLAMF7^+ or SLAMF7-negative target cells were combined with 100,000 CAR-transduced T cells in duplicate wells of a 96 well round bottom plate in 200 µL of AIM V™ medium (Invitrogen) plus 5% human serum. […]
(§6) The T cells columns indicate whether T cells were transduced with Luc90-CD828Z, Luc63-CD828Z, or were untransduced. The % CAR^+ in Table B-1 was determined by staining the T cells with Protein L. Except for the % CAR^+ column, all values are pg/mL of IFN-gamma. […]

U251 = assay: IFN-gamma ELISA, CAR T cells with U251 target cells; format: cell-based, human; conditions: Table B-2
Description: as §4, §5, §6

HepG2 = assay: IFN-gamma ELISA, CAR T cells with HepG2 target cells; format: cell-based, human; conditions: Table B-1
Description: as §4, §5, §6

[3] = dose of 2 million or more T cells per mouse

## IC9-Luc90-CD828Z: CAR plus suicide gene construct (SEQ ID NO: 31): IC9 suicide gene 5′ to the CAR, T2A, Luc90-CD828Z
T cells only; Table E
  IFN-gamma, T-cells Alone: 38 pg/mL
SLAMF7-K562 target cells
  proliferation (CFSE dilution): proliferated specifically in response to SLAMF7^+ target cells; also recorded: proliferated more
[1]; 0.5×10^6 to 8×10^6 T cells
  dose dependence of activity against established tumors: dose-dependent activity
[1]
  anti-tumor activity: powerful anti-tumor activity
[1]; [3]
  survival: mice survive long-term
  tumor eradication: tumors can be eradicated
[1]; single infusion of 0.5×10^6 CAR^+ T cells (FIG. 16)
  effect on tumors: only slightly slowed tumor growth relative to untreated mice but did not eliminate any tumors
[1]; single infusion of 2×10^6 CAR^+ T cells (FIG. 16)
  effect on tumors: eliminated all tumors
[1]; single infusion of 8×10^6 CAR^+ T cells (FIG. 16)
  effect on tumors: eliminated all tumors
CCRF-CEM; Table E
  IFN-gamma, CCRF-CEM: 33 pg/mL
MM.1S; Table E
  IFN-gamma, MM.1S: 1849 pg/mL
[2]
  signs of CAR T-cell-mediated toxicity: did not exhibit any signs of CAR T-cell-mediated toxicity; also recorded: did not exhibit ruffled fur or decreased activity; also recorded: no toxicity

## Luc90-CD828Z: anti-SLAMF7 CAR (SEQ ID NO: 27): murine Luc90 scFv, human CD8a hinge and TM, CD28 and CD3ζ domains; tested as transduced T cells
TC71
  IFN-gamma, target cells TC71: 82 pg/mL
T cells only; Table B-2
  IFN-gamma, T cells only: 29 pg/mL
T cells only; Table C
  IFN-gamma, T cells only: 33 pg/mL
T cells only; Table D, no target cells, soluble SLAMF7 0 ng/ml
  IFN-gamma, T cells 0 ng/ml: 172 pg/mL
T cells only; Table D, no target cells, soluble SLAMF7 50 ng/ml
  IFN-gamma, T cells 50 ng/ml: 160 pg/mL
T cells only; Table D, no target cells, soluble SLAMF7 200 ng/ml
  IFN-gamma, T cells 200 ng/ml: 41 pg/mL
SLAMF7-K562 target cells
  proliferation (CFSE dilution): proliferated specifically in response to SLAMF7^+ target cells
U251
  IFN-gamma, target cells U251: 27 pg/mL
[1]
  anti-tumor activity: powerful anti-tumor activity
CCRF-CEM; Table C
  IFN-gamma, target cells CCRF-CEM: 16 pg/mL
MM.1S; Table C
  IFN-gamma, target cells MM.1S: 4269 pg/mL
HepG2
  IFN-gamma, target cells HepG2: 24 pg/mL
[2]
  signs of CAR T-cell-mediated toxicity: did not exhibit ruffled fur or decreased activity
